{"source": "paper PMC11134608", "about": "“UBR5 forms ligand-dependent complexes on chromatin to regulate nuclear hormone receptor stability” (Molecular cell, 2023)", "key": {"[1]": {"system": "ATRA-induced gene expression in NB4 cells", "experiment": "RNA sequencing of NB4 cells", "type": "cell-based, human", "details": "NB4, MG132 or DMSO, ATRA 0, 8, 24 h", "method": "Cell lines were expanded, treated with ligand, and incubated at 37C. Cells were pelleted by centrifugation for 5 minutes, washed with cold PBS, and RNA was isolated by RNeasy kit (Qiagen) per manufacturer’s instructions. RNA was sent to Novogene for library preparation and sequencing, or prepared for sequencing (NEBNext, New England Biolabs) and sequenced on an Illumina NextSeq 550 sequencer.\nPaired-end reads were aligned to the hg38.p13[81],[82] reference genome with the STAR[83] (v5.2.7b) aligner as part of the RSEM[99] command line tool. Gene transcript abundance was further quantified from aligned fragments using RSEM to generate a gene-by-sample matrix of expected counts. Differential expression was tested, as with the ChIP-seq data, using the DESeq[88],[93]2 and ashr[94] pipeline, this time calculating sample-specific scale factor offset using the method of median-ratio as implemented in the R package EBSeq[100] (v1.36.0). For plotting in heatmaps, genes were selected based on ChIP-seq peak annotation and subset."}, "RARA and UBR5": {"system": "RARA and UBR5", "experiment": "BRET assay of RARA and UBR5", "type": "cell-based, human", "details": "± 9-cis RA, n = 3", "excerpt": "Bioluminescence resonance energy transfer (BRET) experiments were done using the NanoBRET PPI kit (Promega, N1821) according to manufacturer’s instructions."}, "[2]": {"system": "RARA/RXRA heterodimer (pre-formed complex with fluorescein-labelled NCOA1 peptide)", "experiment": "Fluorescence polarization, competitive reverse titration of unlabeled peptides", "type": "binding, human", "details": "with ATRA; 10 nM tracer, 0.5 μM RARA/RXRA, competitor 0–85 μM; 20 mM HEPES pH 7.4, 110 mM NaCl; room temperature; variable slope fit; duplicates", "method": "Fluorescein-labelled NCOA1 peptide residues […] (Flc-[…]) was used as a fluorescent tracer as described previously.[71] Increasing amounts of RARA/RXRA heterodimer (0.1–26 μM final concentration) were mixed with tracer (10 nM final concentration) in a 384-well microplate (784076, Greiner) at room temperature. The interaction was measured in a final buffer containing 20 mM HEPES pH 7.4, 110 mM NaCl, 500 μM TCEP, 1% Glycerol, 0.1% (v/v) pluronic acid with or without 100 μM all-trans-retinoic acid. A PHERAstar FS microplate reader (BMG Labtech) equipped with a fluorescence polarization filter unit was used to determine changes in fluorescence polarization. The polarization units were converted to fraction bound, defined as (mPfree – mP) / (mPfree – mPbound), as described previously.[72] […]\nA. RARAreporter degradation in HEK293cells withCRISPR-editedUBR5 deficientof itsHECTdomain inthepresence or absenceof ATRA (n=3 two-sided ttest).B. Ubiquitylation assayof a pseudo-primedRARA/RXRAsubstrate, generated as His-3Ub~RARA and His-3Ub~RXRA linearfusions in E.coli.Wild type UBR5 can rapidly branch and extend Ub chains on the substrate, however indicated mutants of the UBA domain severely hinder chain extension. […] Fluorescence polarization (FP) experiment showing forward titrationof RARA/RXRA intoa fluorescein-labelled NCOA1 peptide (residues 686-698). […]"}, "UBR5-RARA": {"system": "UBR5-RARA", "experiment": "UBR5 pull-down competition with NCOA1", "type": "binding, human", "details": "NCOA at 0.5, 5 and 10× molar excess relative to UBR5, with ATRA", "excerpt": "Figure 2. UBR5 competes with nuclear coactivators for the conserved hydrophobic cleft of NRs (A) Schematic of RARA domain architecture; NTD, N-terminal domain; DBD, DNA-binding domain; LBD, ligand-binding domain. (B) Degradation of RARA reporters containing 4–5 surface-exposed alanine mutations per helix, relative to untreated (DMSO) (n = 3 two-sided t test). See Figure S2 for detailed amino acid substitutions. (C) Degradation of RARA reporters containing glutamate-substituted residues within the H3/H4 hydrophobic cleft. (n = 3 two-sided t test). […] FLAG-UBR5 (15 pmol) was pre-bound to a large excess of His-RARA in the presence of ATRA and excess RARA protein washed away. Increasing amounts of full-length NCOA1 protein were then added to outcompete the UBR5-RARA interaction. NCOA was titrated with a 0.5, 5, and 10× molar excess relative to UBR5. (F) Relative abundances in RARA-GFP IP-MS of NCOR1, NCOA1, and UBR5 normalized to RARA abundance following 0, 4, and 16 h of ATRA treatment.\n12 μL of FLAG M2 slurry were equilibrated with binding buffer (25 mM HEPES pH 7.4, 125 mM NaCl, 0.05% TWEEN-20). The resin was pelleted and excess buffer removed. 60 μL of fresh binding buffer was re-added, followed by addition of 15 pmol (2.5 μL ofa6 μM solution) of purified FLAG-UBR5 protein and incubated on a rotating wheel at 4°C for 60–90 minutes. […]"}, "3Ub~RARA/RXRA substrate": {"system": "3Ub~RARA/RXRA substrate", "experiment": "In vitro ubiquitylation of pseudo-ubiquitylated RARA/RXRA", "type": "biochemical, human", "excerpt": "Input UBR5 variants -50 RARA/RXRA (µM)[NCOA1 peptide] uM\n250 NCOA1 peptide (fluorescein-labeled probe): 5-FAM-[…]\n200 LxxLLs UBR5 peptides (unlabeled): […]\nUnlabelled peptide (µM)UBR5 peptide (µM)\n0.0 +RARA/RXRA + retinoic acid\nH A-1 A-2 Name Expressed UBR5 construct […]\nround kDa WT LxxA LxxA WT 1-2799 kDa Input Backg WT LxxAA-1 LxxAA-2 ∆ UBR ∆ tandem ∆ UBA 250 […]\nFigure S5. Interaction ofUBR5with NRs and LxxLL motifs,Related to Figure 3\nA. RARAreporter degradation in HEK293cells withCRISPR-editedUBR5 deficientof itsHECTdomain inthepresence or absenceof ATRA (n=3 two-sided ttest).B. Ubiquitylation assayof a pseudo-primedRARA/RXRAsubstrate, generated as His-3Ub~RARA and His-3Ub~RXRA linearfusions in E.coli.Wild type UBR5 can rapidly branch and extend Ub chains on the substrate, however indicated mutants of the UBA domain severely hinder chain extension. C. Fluorescence polarization (FP) experiment showing forward titrationof RARA/RXRA intoa fluorescein-labelled NCOA1 peptide (residues 686-698). […]\nFluorescence polarization experiments depicting competitive reverse titrationwith indicated peptides against a pre-formed complex of RARA/RXRA with a fluorescein-labelled peptide of NCOA1 (residues 686-698) in the presence of ATRA. Titrations were performed in duplicate and binding constants determined after converting fluorescence polarization values tofraction bound of originalcomplex. […]"}}, "note": "Residues, ends and D or L forms follow the SMILES beside them. *: point of attachment. Cbz = O=C(OCc1ccccc1)*"}
{"compound": "CC(C)C[C@@H](C=O)NC(=O)[C@H](CC(C)C)NC(=O)[C@H](CC(C)C)NC(=O)OCc1ccccc1", "note": "[MG132] (Cbz-Leu-Leu-Leu-aldehyde)", "values": [{"measurement": "effect of proteasomal inhibition (MG132) on ATRA-induced transcription", "setting": "[1]", "value": "strongly decreased ATRA-induced transcription"}]}
{"compound": "CC1=C(/C=C/C(C)=C\\C=C\\C(C)=C\\C(=O)O)C(C)(C)CCC1", "note": "[RA]", "values": [{"measurement": "RARA/UBR5 BRET luminescence", "setting": "RARA and UBR5", "value": "exhibited more luminescence than controls"}]}
{"compound": "LQPYLRELLSAKD [UBR5 aa1098]", "values": [{"measurement": "Kapp", "setting": "[2]", "value": "41.4 ± 2.8", "unit": "µM"}]}
{"compound": "NCOA1: full-length NCOA1 protein", "values": [{"measurement": "UBR5 binding to RARA in presence of excess NCOA1", "setting": "UBR5-RARA", "value": "impaired by an excess of full-length NCOA1"}]}
{"compound": "RLDLLYRLLTATN [UBR5 aa1251]", "values": [{"measurement": "Kapp", "setting": "[2]", "value": "3.1 ± 0.1", "unit": "µM"}]}
{"compound": "UBR5^V196K: UBR5 with a substitution at the ubiquitin-binding interface", "values": [{"measurement": "processivity in ubiquitylation assay", "setting": "3Ub~RARA/RXRA substrate", "value": "severely hindered processivity in ubiquitylation assays"}]}
{"compound": "UBR5^Δ83–347: UBR5 lacking the UBA insertion entirely", "values": [{"measurement": "processivity in ubiquitylation assay", "setting": "3Ub~RARA/RXRA substrate", "value": "severely hindered processivity in ubiquitylation assays"}]}
